Laboratory results published in patent publication US20150118306A1, “COMPOSITIONS COMPRISING SULFORAPHANE OR A SULFORAPHANE PRECURSOR AND A MILK THISTLE EXTRACT OR POWDER” (Nutramax Laboratories, Inc., priority 2012, published 2015).

Key:
myrosinase [1] = experiment: Conversion of glucoraphanin to sulforaphane in simulated intestinal fluid (Example 5); assay type: biochemical, broccoli; details: 38° C., ascorbic acid 0.25 to 1.00 mmol/Liter, 2 hours, FIG. 4
Method: Simulated Intestinal Fluid (SIF) powder, a commercially supplied concentrate closely approximating the human intestinal content in terms of composition, pH and ionic strength, was used. The experiment utilized a USP Dissolution Apparatus 2 (paddles), where into six dissolution vessels 500 mL of Simulated Intestinal Fluid was dispensed, along with 150 mg of freeze-dried broccoli sprout powder as a source of myrosinase. […] Aliquots were withdrawn every 15 minutes, and assayed for sulforaphane.

myrosinase [2] = experiment: Equimolar conversion of glucoraphanin to sulforaphane by myrosinase, HPLC (Example 4); assay type: biochemical, broccoli
Method: A two-part experiment was conducted to further elucidate the role of ascorbic acid in modulating myrosinase activity. […] A control sample contained no ascorbic acid, and the enzymatic conversion proceeded unassisted by a co-factor. PART 1. […] PART 2. While keeping the amount of broccoli seed extract fixed at 250 mg, the concentration of ascorbic acid was varied from 0.4 mmol/Liter to 3.8 mmol/Liter.

[3] = test system: NAD(P)H:quinine oxidoreductase (NQO1); details: oral administration; mammary epithelium; Sprague-Dawley rats; cited from earlier work
heme oxygenase-1 (HO-1) = details: oral administration; mammary epithelium; Sprague-Dawley rats; cited from earlier work
mammary tumors = details: Sprague-Dawley rats; cited from earlier work
HepG2 cells = experiment: Glutathione levels in HepG2 cell lysates, o-phthalaldehyde fluorescence (Example 6); assay type: cell-based, human; details: alone or combined
Method: The following study was conducted to determine the effect of the combination of sulforaphane and silibinin on glutathione levels. Glutathione plays an important role in the body, as it can serve as an antioxidant, detoxifier, and immunity enhancer. Decreased levels of glutathione can cause a patient to be susceptible to oxidative stress, illness, and cancer. Therefore, an increase in glutathione levels is a beneficial effect.
In the study, the human liver cancer cell line, HepG2 cells were treated with DMSO (vehicle control), sulforaphane (SFN), silibinin (Silib), or the combination of sulforaphane and silibinin, for 24 hours. Cell lysates were collected and glutathione levels were measured using o-phthalaldehyde (OPT) as a fluorescent reagent. FIG. 5 and FIG. 6 show the results of the study.
In Part 1 of the study, the effect of 0.5 μM SFN was compared to various concentrations of silibinin and to the combination of 0.5 μM SFN and silibinin at various concentrations. […] An increase in glutathione levels is a beneficial effect. The results are depicted in FIG. 5.
In Part 2 of the study, the effect of 2 μM SFN was compared to various concentrations of silibinin and to the combination of 2 μM SFN and silibinin at various concentrations. […] An increase in glutathione levels is a beneficial effect to detoxify cells. The results are depicted in FIG. 6.

Compound | Yield of sulforaphane versus ascorbic acid concentration (myrosinase [1]) | Modulatory effect of increasing ascorbic acid concentration on myrosinase activity (myrosinase [2]; Part 2: 250 mg broccoli seed extract, ascorbic acid 0.4 to 3.8 mmol/Liter) | Stoichiometry of enzymatic conversion of glucoraphanin to sulforaphane (myrosinase [2]; control sample without ascorbic acid) | Increase in NQO1 enzymatic activity [3] [fold] | Elevated immunostaining of HO-1 enzyme (heme oxygenase-1 (HO-1)) [fold] | Formation of mammary tumors (mammary tumors) | Glutathione levels compared to DMSO (vehicle) control (HepG2 cells; Part 1, 24 hours: 0.5 μM SFN, 100, 200, 300 μM Silib, FIG. 5) | Glutathione levels compared to the control (HepG2 cells; Part 2, 24 hours: 2 μM SFN, 100, 300 μM Silib, FIG. 6)
O=C1O[C@H]([C@@H](O)CO)C(O)=C1O [Ascorbic Acid, ascorbic acid] | direct correlation between larger yield of sulforaphane and higher concentrations of ascorbic acid | linear, increase in myrosinase-promoted conversion of glucoraphanin to sulforaphane is observed to about 2 mmol/L |  |  |  |  |  | 
C[S+]([O-])CCCC/C(=N\OS(=O)(=O)O)S[C@@H]1O[C@H](CO)[C@@H](O)[C@H](O)[C@H]1O (stereo partly drawn) [glucoraphanin, 1-S-[(1E)-5-(methylsulfinyl)-N-(sulfonatooxy)pentanimidoyl]-1-thio-β-D-glucopyranose] |  |  | equimolar conversion of glucoraphanin to sulforaphane | 3 | 4 |  |  | 
C[S+]([O-])CCCCN=C=S (stereo not drawn) [sulforaphane, 1-isothiocyanato-4-methylsulfinylbutane] |  |  |  |  | 4 | effective in blocking the formation of mammary tumors | remained the same | remained the same
